The source made the active and inactive calls.
Assays:
[1] = blockers of HIV-1 envelope-mediated cell-cell fusion – cherry-pick, dose response (AID 652057); assay type: functional, cell-based
[2] = Luminescence Cell-Based Dose Confirmation HTS to Identify Activators of 5'UTR Stem-Loop Driven Alpha-Synuclein mRNA Translation in H4 Neuroglioblastoma Cells. [Related pubchem assays: 1829 (Project Summary), 1814 (Primary HTS)]; assay type: functional
[3] = Luminescence Cell-Based Dose Response HTS to Identify Activators of Luciferase Translation or Activity in H4 […] Cells. [Related pubchem assays: 1829 (Project Summary), 1814 (Primary HTS)]; assay type: functional
H4 = test: Luminescence Cell-Based Dose Response HTS to Identify Activators of 5'UTR Stem-Loop Driven Prion Protein mRNA Translation in H4 Neuroglioblastoma Cells. [Related pubchem assays: 1829 (Project Summary), 1814 (Primary HTS)]; assay type: functional; conditions: Homo sapiens
Cytochrome P450 3A4 = Cytochrome P450 3A4 (Homo sapiens, UniProt P08684); conditions: Potency;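 note: confirmatory qHTS run detecting inhibitors and substrates of CYP3A4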
[4] = tested on: Streptococcus sp. 'group A'; test: Streptococcus pyogenes SK(-)GAS viability under kanamycin – luminescence, BacTiterGlo, confirmation, counter-screen for streptokinase expression inhibitor project, dose response (AID 1900); assay type: functional, organism-based
Streptokinase A = molecular target: T1, Streptokinase A (Streptococcus pyogenes serotype M1, UniProt P10520); test: viability-normalized secreted streptokinase activity reduction – plasminogen activation absorbance, OD405, dose response (AID 1914); assay type: functional, Streptococcus pyogenes M1 GAS;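 note: secreted streptokinase activity via plasminogen activation per viability signal from cell pellet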
T1 sequence (P10520 whole entry): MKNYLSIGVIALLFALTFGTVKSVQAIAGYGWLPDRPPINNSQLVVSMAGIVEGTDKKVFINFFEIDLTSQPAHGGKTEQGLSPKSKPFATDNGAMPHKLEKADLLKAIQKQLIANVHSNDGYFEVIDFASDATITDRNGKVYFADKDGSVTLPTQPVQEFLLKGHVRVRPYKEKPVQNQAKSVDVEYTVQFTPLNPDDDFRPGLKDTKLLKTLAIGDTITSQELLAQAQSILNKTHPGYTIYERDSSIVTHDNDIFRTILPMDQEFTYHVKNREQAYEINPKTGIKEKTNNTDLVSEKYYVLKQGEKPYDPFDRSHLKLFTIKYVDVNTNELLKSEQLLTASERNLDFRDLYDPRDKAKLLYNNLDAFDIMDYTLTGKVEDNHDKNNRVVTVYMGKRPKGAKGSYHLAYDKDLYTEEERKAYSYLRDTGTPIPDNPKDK

[5] = molecular target: T2, Calpain-2 catalytic subunit (Sus scrofa, UniProt P43367); test: m-calpain protease blockers, concentration series – biochemical, fluorogenic peptide substrate, dose response (AID 1420); assay type: functional
T2 sequence (P43367 whole entry): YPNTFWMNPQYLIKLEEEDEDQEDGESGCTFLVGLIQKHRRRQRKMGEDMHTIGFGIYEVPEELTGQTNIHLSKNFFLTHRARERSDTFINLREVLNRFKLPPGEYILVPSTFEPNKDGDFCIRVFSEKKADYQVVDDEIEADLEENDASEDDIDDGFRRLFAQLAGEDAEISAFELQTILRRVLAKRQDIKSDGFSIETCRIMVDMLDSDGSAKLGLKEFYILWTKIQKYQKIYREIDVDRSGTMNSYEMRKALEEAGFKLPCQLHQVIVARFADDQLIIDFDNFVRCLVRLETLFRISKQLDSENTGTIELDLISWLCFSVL

Streptococcus = test: GAS UMAA2166 growth inhibition – luminescence, BacTiterGlo, counter-screen for streptokinase expression inhibitor project, dose response (AID 1915); assay type: functional, organism-based;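 note: potency for reduction of bacterial viability or growth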
[6] = luciferase reporter signal suppression in cells – H4 neuroglioma cells, luminescence, dose response (AID 1990); assay type: functional, cell-based
[7] = Luminescence Cell-Based Dose Response HTS to Identify Inhibitors of 5'UTR Stem-Loop Driven Prion Protein mRNA Translation in H4 Neuroglioblastoma Cells. [Related pubchem assays: 1827 (Project Summary), 1813 (Primary HTS)]; assay type: functional
[8] = alpha-synuclein stem-loop luciferase translation blockers – H4 neuroglioma cells, luminescence, confirmation (AID 1988); assay type: functional, cell-based
[9] = microbe, parasite or virus in culture; assay type: functional; conditions: Mycobacterium tuberculosis
[10] = Luminescence Cell-Based Dose Retest to Confirm Inhibitors of Cancer Stem Cells. [Related pubchem assays (depositor defined):AID2717, AID2721]; assay type: functional; conditions: Homo sapiens
[11] = blockers of HIV-1 ZM109 envelope-driven cell-cell fusion – HeLa effector, CEM target cells, luciferase, cherry-pick, dose response (AID 652058); assay type: functional, cell-based;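 note: luciferase signal from HIV-1 Env mediated cell-cell fusion of effector and target cells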
[12] = HIV-1 AD8 envelope cell-cell fusion blockers – cherry-pick, dose response (AID 652062); assay type: functional, cell-based;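 note: luciferase signal from cell-cell fusion driven by HIV-1 clade B AD8 Env; potency is for inhibitors of fusion seen as a drop in luminescence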
Paired box protein Pax-8 = Paired box protein Pax-8 (Homo sapiens, UniProt Q06710); test: PAX8 transcriptional activity inhibition in RMG-I – RMG-I cells, luciferase, cherry-pick, dose response (AID 687027); assay type: functional, cell-based;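 note: luciferase reporter driven by Pax8 target thyroperoxidase promoter measured by SteadyGlo luminescence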
[13] = OVCAR8 cell viability loss – plate reader, dry powder samples, PAX8 project, dose response (AID 743197); assay type: functional, cell-based; conditions: OVCAR-8
[14] = molecular target: Induced myeloid leukemia cell differentiation protein Mcl-1 (Homo sapiens, UniProt Q07820); assay type: functional
[15] = reduction of Shn3 3'UTR-driven luciferase in osteoblasts – cell-based, Clone20 osteoblasts, firefly luciferase, cherry-picked, dose response (AID 624132); assay type: functional;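 note: firefly luciferase luminescence from reporter carrying the Shn3 3'UTR in osteoblasts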
[16] = loss of viability in HepG2 cells – cell-based, CellTiter-Glo, cherry-picked, cytotoxicity control for Shn3 inhibitor project, dose response (AID 624134); assay type: functional
[17] = non-specific 3'UTR reporter inhibition in Clone20-Shn3RL – cell-based, Renilla luciferase, cherry-picked, counter-screen for Shn3 inhibitor project, dose response (AID 624133); assay type: functional
[18] = viability of uninfected HEp-2 cells – cell-based, HTS, cytotoxicity control for RSV inhibitor project, dose response (AID 2410); assay type: functional; conditions: human respiratory syncytial virus
[19] = molecular target: T3, Carboxy-terminal domain RNA polymerase II polypeptide A small phosphatase 1 (Homo sapiens, UniProt Q9GZU7); test: CTDSP1 inhibitors, concentration-response, biochemical, absorbance readout, ultra-high-throughput screen actives (AID 540297); assay type: functional
T3 sequence (Q9GZU7 whole entry): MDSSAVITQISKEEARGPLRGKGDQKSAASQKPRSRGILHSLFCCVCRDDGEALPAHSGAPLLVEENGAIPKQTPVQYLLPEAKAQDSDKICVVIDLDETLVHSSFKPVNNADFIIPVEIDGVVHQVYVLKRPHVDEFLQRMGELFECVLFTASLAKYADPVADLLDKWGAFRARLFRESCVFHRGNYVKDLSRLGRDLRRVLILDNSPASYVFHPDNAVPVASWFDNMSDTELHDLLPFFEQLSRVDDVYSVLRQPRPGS

[20] = molecular target: T4, RNA-binding protein pos-1 (Caenorhabditis elegans, UniProt G5EF15); test: disruptors of C. elegans POS-1 RNA interaction – biochemical, fluorescence polarization, dose response (AID 1964);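 note: purified POS-1 fused to maltose binding protein made in E. coli; potency of compounds blocking POS-1 binding to fluorescent RNA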
T4 sequence (G5EF15 whole entry): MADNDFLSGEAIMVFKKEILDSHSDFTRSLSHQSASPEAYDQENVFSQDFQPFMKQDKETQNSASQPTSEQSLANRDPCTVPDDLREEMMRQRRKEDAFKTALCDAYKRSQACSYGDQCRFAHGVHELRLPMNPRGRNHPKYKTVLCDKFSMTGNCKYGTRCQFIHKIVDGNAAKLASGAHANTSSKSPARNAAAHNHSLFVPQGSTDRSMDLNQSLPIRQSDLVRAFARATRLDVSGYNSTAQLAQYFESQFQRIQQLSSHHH

[21] = molecular target: T5, Zinc finger protein mex-5 (Caenorhabditis elegans, UniProt Q9XUB2); test: potency of MEX-5 RNA-binding blockers – biochemical, C. elegans, fluorescence polarization, dose response (AID 1960)
T5 sequence (Q9XUB2 whole entry): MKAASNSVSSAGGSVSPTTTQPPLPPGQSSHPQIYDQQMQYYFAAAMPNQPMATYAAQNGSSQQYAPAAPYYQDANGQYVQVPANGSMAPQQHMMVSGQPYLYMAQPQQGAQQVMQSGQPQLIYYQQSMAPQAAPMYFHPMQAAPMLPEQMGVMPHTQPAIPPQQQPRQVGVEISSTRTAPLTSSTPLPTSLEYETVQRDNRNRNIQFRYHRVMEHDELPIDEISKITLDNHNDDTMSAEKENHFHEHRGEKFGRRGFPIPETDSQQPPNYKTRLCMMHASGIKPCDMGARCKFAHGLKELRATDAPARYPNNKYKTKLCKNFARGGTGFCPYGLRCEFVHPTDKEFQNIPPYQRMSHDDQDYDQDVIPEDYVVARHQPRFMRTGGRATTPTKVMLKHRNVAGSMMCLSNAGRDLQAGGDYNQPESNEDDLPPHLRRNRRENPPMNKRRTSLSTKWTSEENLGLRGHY

Sequence of Induced myeloid leukemia cell differentiation protein Mcl-1 (Q07820 whole entry): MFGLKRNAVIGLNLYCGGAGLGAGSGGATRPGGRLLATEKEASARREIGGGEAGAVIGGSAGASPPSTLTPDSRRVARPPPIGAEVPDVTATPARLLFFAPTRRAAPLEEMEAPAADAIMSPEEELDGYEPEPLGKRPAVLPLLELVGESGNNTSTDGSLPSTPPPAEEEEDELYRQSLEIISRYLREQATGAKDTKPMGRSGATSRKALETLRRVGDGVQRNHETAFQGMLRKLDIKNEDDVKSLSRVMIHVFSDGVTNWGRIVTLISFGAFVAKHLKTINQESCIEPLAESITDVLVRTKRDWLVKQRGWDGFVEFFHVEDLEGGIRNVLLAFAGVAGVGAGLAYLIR
Sequence of Cytochrome P450 3A4 (P08684 whole entry): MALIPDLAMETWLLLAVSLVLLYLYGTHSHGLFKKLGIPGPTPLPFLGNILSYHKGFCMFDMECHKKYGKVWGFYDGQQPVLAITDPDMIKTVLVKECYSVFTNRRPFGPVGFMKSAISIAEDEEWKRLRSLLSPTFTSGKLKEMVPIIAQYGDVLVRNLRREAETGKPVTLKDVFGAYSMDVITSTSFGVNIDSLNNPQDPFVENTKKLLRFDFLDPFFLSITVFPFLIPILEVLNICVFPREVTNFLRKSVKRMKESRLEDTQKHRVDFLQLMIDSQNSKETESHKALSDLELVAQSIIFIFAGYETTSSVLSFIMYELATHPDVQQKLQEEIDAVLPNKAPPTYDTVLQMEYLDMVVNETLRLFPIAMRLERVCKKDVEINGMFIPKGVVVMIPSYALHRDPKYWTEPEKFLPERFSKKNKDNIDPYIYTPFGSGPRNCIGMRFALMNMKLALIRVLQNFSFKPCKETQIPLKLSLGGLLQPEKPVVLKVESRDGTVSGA
Sequence of Paired box protein Pax-8 (Q06710 whole entry): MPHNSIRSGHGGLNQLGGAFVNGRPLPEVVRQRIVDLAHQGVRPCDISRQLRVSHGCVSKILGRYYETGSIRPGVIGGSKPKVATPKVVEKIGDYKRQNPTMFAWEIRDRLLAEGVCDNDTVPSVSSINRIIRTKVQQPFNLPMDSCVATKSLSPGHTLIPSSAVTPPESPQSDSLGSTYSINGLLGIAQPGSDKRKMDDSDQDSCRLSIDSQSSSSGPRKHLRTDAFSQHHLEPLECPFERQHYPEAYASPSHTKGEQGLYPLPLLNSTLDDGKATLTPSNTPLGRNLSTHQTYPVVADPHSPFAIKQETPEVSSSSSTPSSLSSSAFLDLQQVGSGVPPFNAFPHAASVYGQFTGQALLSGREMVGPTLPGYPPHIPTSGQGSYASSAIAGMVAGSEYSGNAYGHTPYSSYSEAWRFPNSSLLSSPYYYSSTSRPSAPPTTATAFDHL

SMILES: COc1cccc(S(=O)(=O)N(C)C[C@H]2Oc3cc(C4=CCCC4)ccc3S(=O)(=O)N([C@H](C)CO)C[C@@H]2C)c1
- AC50 [1]: 34.2 µM (active)

SMILES: O=C1/C(=C\Nc2ccc(OC(F)(F)F)cc2)CCN1c1ncccn1
- EC50 [2]: 20.4 µM (active)
- EC50 [3]: 23.7 µM (active)
- EC50 (H4): 14.6 µM (active)

SMILES: C=C(C)C(O)/C=C/C=C/c1ccccc1 (stereo not given)
- AC50 (Cytochrome P450 3A4): 3.98 µM (inconclusive)

SMILES: O=C(Nc1ccccc1C(=O)O)c1cccc(NC(=O)c2ccc(Br)o2)c1
- EC50 [4]: 6.27 µM (active)
- EC50 (Streptokinase A): 6.41 µM (active)
- IC50 [5]: 12.1 µM (not active)
- EC50 (Streptococcus): 9.37 µM (active)

SMILES: COc1ccc(Nc2nc(N)c([N+](=O)[O-])c(NC3CCCCC3)n2)cc1
- EC50 [6]: 14.8 µM (active)
- EC50 [7]: 10.7 µM (active)
- EC50 [8]: 17.2 µM (active)
- CC50 [9]: 32 µM (active)
- AC50 [10]: 3.53 µM (active)

SMILES: O=C1NC(=S)N/C1=C/c1cccc2ccccc12
- EC50 [2]: 17.7 µM (active)
- EC50 [3]: 8.63 µM (active)
- EC50 (H4): > 120 µM (not active)

SMILES: C=CC(C1=CC(=O)C=CC1=O)c1ccccc1 (stereo not given) [DALBERGIONE]
- AC50 (Cytochrome P450 3A4): 31.6 µM (inconclusive)

SMILES: C[C@H]1CN([C@@H](C)CO)C(=O)c2c(c3ccccc3n2C)-c2ccccc2CO[C@H]1CN(C)C(=O)Cc1ccccc1
- AC50 [1]: < 0.26 µM (active)
- AC50 [11]: < 0.26 µM (active)
- AC50 [12]: < 0.26 µM (active)

SMILES: N=C1C=CC(=C(c2cccc(N)c2)c2cccc(N)c2)C=C1
- AC50 (Cytochrome P450 3A4): 5.01 µM (active)

SMILES: C[C@@H]1CN([C@@H](C)CO)C(=O)c2cc(NC(=O)Nc3ccc(C(F)(F)F)cc3)ccc2O[C@@H](C)CCCCO[C@@H]1CN(C)Cc1ccccc1
- AC50 (Paired box protein Pax-8): 9.49 µM (active)
- AC50 [13]: > 60 µM (inactive)

SMILES: CC1CCN(C(c2ccc(N(C)C)cc2)c2nnnn2C(C)(C)C)CC1 (stereo not given)
- IC50 [14]: > 54 µM (active)

SMILES: Cc1sc2c(c1C)CN(Cc1ccncc1)CN2C(=O)c1ccco1
- EC50 [2]: > 120 µM (not active)
- EC50 [3]: 11 µM (active)
- EC50 (H4): > 60 µM (not active)

SMILES: Cn1nc(-c2ccc(OCC(=O)N3CCN(Cc4ccccc4)CC3)cc2)c2ccccc2c1=O
- AC50 [15]: 2.1 µM (active)
- AC50 [16]: 32.4 µM (active)
- AC50 [17]: 4.74 µM (active)
- AC50 [11]: 27.4 µM (active)
- AC50 [12]: 23.5 µM (active)

SMILES: COc1ccc(NC(=O)C2C(=O)N(CCO)C3(C)CC2c2ccccc2O3)cc1 (stereo not given)
- EC50 [2]: 7.35 µM (active)
- EC50 [3]: 14.8 µM (active)
- EC50 (H4): 10.2 µM (active)

SMILES: CCOC(=O)c1c(C)[nH]c(C(=O)COC(=O)C23CC4CC(CC(Cl)(C4)C2)C3)c1C
- CC50 [18]: > 50 µM (active)
- IC50 [5]: 4.08 µM (not active)

SMILES: O=C(N/N=C/c1ccc(-c2ccccc2C(=O)O)o1)c1cccs1
- IC50 [14]: 5.27 µM (active)
- IC50 [19]: 4.6 µM (active)

SMILES: CCOc1ccccc1NC(=O)/C=C/C(N)=O
- IC50 [14]: 1.1 µM (not active)

SMILES: COC(=O)c1cccc(NC(=O)c2cccc(OC)c2)c1
- IC50 [5]: 14.6 µM (not active)

SMILES: CN1C(=O)/C(=C2/C(=O)Nc3ccccc32)S/C1=N\c1ccc(Cl)cc1
- EC50 [2]: 12.7 µM (active)
- EC50 [3]: 46.1 µM (active)
- EC50 (H4): 32.3 µM (active)

SMILES: O=C(O)CC(NC(=O)C1c2ccccc2Oc2ccccc21)c1ccc(OC2CCCC2)cc1 (stereo not given)
- IC50 [5]: 6.06 µM (not active)

SMILES: Cc1cc(C(=O)O)ccc1-n1c(C)cc(/C=C(/C#N)C(=O)Nc2ccccc2)c1C
- EC50 [20]: > 300 µM (not active)
- EC50 [21]: > 300 µM (not active)
- IC50 [5]: 12.6 µM (not active)

SMILES: C[C@H]1CN([C@@H](C)CO)C(=O)c2cc(NC(=O)Nc3ccc4c(c3)OCO4)ccc2O[C@H]1CN(C)S(=O)(=O)c1cccs1
- AC50 [1]: 6.19 µM (active)
- AC50 [11]: 24.7 µM (active)
- AC50 [12]: 29.3 µM (active)

SMILES: Cc1cccc(OCCCC(=O)Nc2ccc(N(C)C)cc2)c1
- IC50 [14]: < 0.4 µM (active)

SMILES: CC(=O)c1c(C(C)=O)c(C)n(C(c2ccccc2)c2ccccc2)c1C
- IC50 [5]: > 50 µM (not active)

SMILES: Nc1nc(Nc2ccccc2)nc(NCc2ccccc2)c1[N+](=O)[O-]
- EC50 [6]: 17 µM (active)
- EC50 [7]: > 120 µM (not active)
- EC50 [8]: 44.7 µM (active)

SMILES: Cc1ccc(Oc2cnn(-c3ccccc3)c(=O)c2Br)cc1
- EC50 [2]: > 120 µM (not active)
- EC50 [3]: 27 µM (active)
- EC50 (H4): 30.7 µM (active)
